# Literature values as cited in patent US6426091B1, “Sustained-release theophylline tablet” (Nikken Chemicals Co., Ltd., priority 1997, dated 2002).
smiles,measurement,setting,value
Cn1c(=O)c2[nH]cnc2n(C)c1=O [Theophylline],biological half-life,adults,about 6 hours
same,"concentration in the blood above which serious side effects (cardiovascular system, central nervous system) sometimes appear",background art,exceeds 20 μg/ml
